According to publication PMC11024192, “Dissolution and antioxidant potential of apigenin self nanoemulsifying drug delivery system (SNEDDS) for oral delivery” (Scientific Reports, 2024):
Several values for one entry are separate records, joined by “and”; a condition that tells them apart may be missing. Equal values may be shown once.

What was measured:
Caco-2 cells = assay: Intracellular (cellular) antioxidant activity (CAA) assay, DCFH-DA/AAPH; assay type: cell-based; details: apigenin 7 μg/mL final, ascorbic acid 0.01%w/v, mean ± SD; for AUC (area under the DCF fluorescence response curve over time): 1 h incubation, 600 µM AAPH; for CAA unit (%reduction): vs non-antioxidant treated control
Excerpt: The quantitative cellular antioxidant activity (CAA) assay is a useful method employed for determining the bioavailability of food antioxidants because it can account for several additional factors, such as cellular uptake and metabolism. The CAA assay uses a fluorescent probe (DCFH-DA) to monitor the inhibition of peroxyl radical-induced oxidation inside the cell. The ester form (DCFH-DA) is nonionic and nonpolar and can be transported across the cell membrane. Inside the cell, DCFH-DA is deacetylated by endogenous cellular esterase and left in its oxidizable DCFH form. Once the free radical generator AAPH is added to the system, peroxyl radicals begin to form. The addition of antioxidants that can enter the cell can compete with and quench the radicals, preventing DCFH from being oxidized to form DCF (fluorescent). The CAA unit takes into account the relative areas under the curves of the samples compared to the control. Caco-2 cells, intestinal barrier models, are an appropriate model for assessing the antioxidant activity, especially for the phenolic compound[21] being used in this study.
The quantitative CAA of SNEDDS formulations GTP2575 and GTP3070 was evaluated in Caco-2 cells modified from the study of Kellett et al.[21]. Caco-2 cells were cultured in advanced DMEM supplemented with 10% endotoxin-free, heat-inactivated FBS, 1% L-glutamine, 1% penicillin (10,000 U/mL), and 1% streptomycin (10,000 μg/mL). Each test sample of SNEDDS was prepared by diluting with serum-free culture media to obtain an equivalent concentration of apigenin (14 µg/mL). The working solution (25 μM DCFH-DA in serum-free culture media) was prepared from a 12.5 mM DCFH-DA stock solution in MeOH. A 600 μM AAPH solution was prepared from a 60 mM AAPH stock solution in HBSS before experimental use. After Caco-2 cells reached confluence in a T-25 culture flask, the cells were washed twice with sterile PBS (pH 7.4) and dissociated from the surface using trypsin–EDTA. The cells were seeded in 96-well, black, flat-bottom tissue culture-treated dishes (Corning Costar, ME, USA). A density of 60,000 cells in 100 µL of culture media was added to each well and incubated until they reached confluency (24 h). The growth medium was removed after confluence was achieved, and the cells were then washed with PBS to remove any nonadherent and dead cells.
At the time of the experiment, 50 µL of 25 μM DCFH-DA working solution was added to each well, followed by 50 µL of a test sample. As a result, the final concentration of apigenin of 7 μg/mL in each well was obtained. As a control, 50 µL of DCFH-DA working solution and serum-free culture media (no sample included) were utilized. Once the DCFH-DA and test samples were added, the cells were placed in the incubator for 1 h at 37 °C. After 1 h, the cells were washed with PBS 3 times to ensure that any antioxidant effect observed later in the assay was due only to the compounds internalized by the cells. […] The cells were then immediately placed in a BMG CLARIOstar (BMG LABTECH, NC, USA), where real-time fluorescence was measured initially and every five minutes for 1 h (a total of 13 readings were taken). The fluorescence was measured at an excitation wavelength of 485 nm and an emission wavelength of 538 nm. The antioxidant activity of test samples was quantified by evaluating the percent reduction in fluorescence. […] The percent reduction, or the CAA unit, was calculated using Eq. (3). The samples were evaluated in triplicate and reported as the mean ± SD. […]

[1] = Solubility of apigenin in oils, surfactants and cosurfactants (excess drug, shaking water bath, HPLC); assay type: physicochemical; details: 48 h, mean ± SD, n = 3
Excerpt: To formulate the SNEDDS, the selection of suitable oils, surfactants, and cosurfactants is important to enhance the solubility of actives and the loading efficiency. The components used in SNEDDS should maximize drug solubility and have good miscibility with each other to obtain a stable formulation. Therefore, the solubility of apigenin was firstly determined in the oils (Gelucire 44/14, Myritol 318, sunflower oil, and corn oil), surfactants (PEG-40 hydrogenated castor oil, Tween 20, Tween 80, Span 20, and Span 80), and cosurfactants (PEG 400 and Transcutol HP). Briefly, an excess amount of apigenin was weighed into 0.5 g of each excipient. The obtained mixtures were mixed using a vortex mixer and kept in a shaking water bath at 100 rpm and 37 ± 2 °C for 48 h. After equilibrium was achieved, the equilibrated sample was centrifuged at 8000 rpm for 20 min. The excess undissolved apigenin was discarded, and the supernatant was collected. The concentration of apigenin was analyzed by the high-performance liquid chromatography (HPLC). The experiments were performed in triplicate. The excipient in which apigenin was the most soluble was selected to form the pseudoternary phase diagram. The amount of apigenin was quantified by a validated reversed-phase HPLC (RP-HPLC) equipped with a UV/VIS detector (SHIMADZU Series 20AD, Japan). Apigenin was separated on a C18 column (Promosil C18, 4.5 × 250 mm, 5 µm) using methanol, acetonitrile, acetic acid, orthophosphoric acid, and water at a ratio of 40:20:0.05:0.05:40 by volume as the mobile phase at a flow rate of 0.6 mL/min with a detection wavelength of 352 nm. The column temperature was set to 30 °C. The standard curve of apigenin was linear in the concentration range of 0.05–40 µg/mL. Good linearity with a coefficient of determination (R^2) > 0.999 was achieved. The relative standard deviation (%RSD) of intraday and interday precision of the assay method for apigenin was below 6%, and the accuracy was within the range of 95–105%. The limit of quantification and limit of detection were 0.64 and 0.21 µg/mL, respectively.

[2] = In vitro dissolution profile (apparatus type II, HPMC capsules) and release kinetics fitting; assay type: physicochemical; details: 37 °C, 100 rpm, 5 mg apigenin in HPMC capsule
Protocol: The apigenin-loaded SNEDDS formulations GTP2575 and GTP3070 were selected for evaluating the in vitro dissolution because both formulations offered nearly 100% transmittance, an appropriate size with a narrow size distribution, a quick self-emulsification time, and great drug loading and encapsulation efficiency. […] Therefore, formulations GTP2575 and GTP3070 were preferred for in vitro dissolution study.
Dissolution was performed by a dissolution apparatus type II (a paddle) (Vision G2 Elite 8, Hanson, CA, USA). The SNEDDS formulations GTP2575 and GTP3070 containing 5 mg of apigenin were added to HPMC capsules number 00. An equivalent 5 mg of apigenin coarse powder added to HPMC capsules using lactose monohydrate as the filler was the control. Each capsule was placed inside a sinker loaded with 900 mL of dissolution media (buffer solutions pH 1.2, 4.5, and 6.8) at 37.0 ± 0.5 °C with a rotating speed of 100 rpm. During the study, 5 mL of dissolution medium was removed at predetermined time intervals (10, 15, 20, 30, 45, 60, 90, and 120 min), and 5 mL of fresh buffer solution was replaced. The amount of apigenin dissolved in the dissolution media was determined by HPLC. The dissolution experiment was carried out in triplicate. The dissolution profile was plotted with the percent apigenin dissolved on the y-axis and time on the x-axis. The dissolution profiles of GTP2575, GTP3070, and the coarse powder in the dissolution media buffer pH 1.2, 4.5, and 6.8 were compared. The dissolution results of the SNEDDS formulations GTP2575 and GTP3070 in pH 1.2 buffer solution were fitted by determining the R^2 with various kinetic models such as zero-order (a constant release rate independent of the drug remaining), first-order (an exponential decay of the drug remaining), Higuchi (matrix systems where drug release is controlled by diffusion), Hixon–Crowell (release based on the change in the cube root of the drug remaining), and Korsmeyer–Peppas (an extension of the […] model that incorporates a release exponent). […]

[3] = set-up: method as in PMID 34084146; details: cited from earlier work

Structure (SMILES) | AUC (area under the DCF fluorescence response curve over time) (Caco-2 cells; n = 3) | CAA unit (%reduction) (Caco-2 cells; n = 3) [%] | Solubility at 37 °C ([1]; in Gelucire 44/14 (oil)) | Solubility at 37 °C ([1]; in Myritol 318 (oil)) [mg/g] | Solubility at 37 °C ([1]; in PEG 400 (cosurfactant)) [mg/g] | Solubility at 37 °C ([1]; in PEG-40 hydrogenated castor oil (surfactant)) [mg/g] | Solubility at 37 °C ([1]; in Span 20 (surfactant)) [mg/g] | Solubility at 37 °C ([1]; in Span 80 (surfactant)) [mg/g] | Solubility at 37 °C ([1]; in Transcutol HP (cosurfactant)) [mg/g] | Solubility at 37 °C ([1]; in Tween 20 (surfactant)) [mg/g] | Solubility at 37 °C ([1]; in Tween 80 (surfactant)) [mg/g] | Solubility at 37 °C ([1]; in corn oil) [mg/g] | Solubility at 37 °C ([1]; in sunflower oil) [mg/g] | percent apigenin dissolved at 120 min ([2]; buffer pH 1.2, 900 mL) [%] | percent apigenin dissolved at 120 min ([2]; buffer pH 4.5, 900 mL) [%] | percent apigenin dissolved at 120 min ([2]; buffer pH 6.8, 900 mL) [%] | CAA unit (%reduction) (Caco-2 cells; n = 3, listed as Apigenin coarse powder) [%] | CAA unit (%reduction) (Caco-2 cells; n = 3, listed as apigenin coarse powder) | Biopharmaceutical classification system (BCS) class [3] | Solubility in water [3]
O=C1O[C@H]([C@@H](O)CO)C(O)=C1O [ascorbic acid] | 8,959,896 ± 1,441,639 | 21.61 ± 7.41 |  |  |  |  |  |  |  |  |  |  |  |  |  |  |  |  |  | 
O=c1cc(-c2ccc(O)cc2)oc2cc(O)cc(O)c12 [apigenin] | 9,951,772 ± 1,061,408 |  | 7.77 ± 0.63 mg/g and 7.7686 ± 0.6332 mg/g | 0.0003 ± 0.0000 | 27.6349 ± 0.9833 | 11.3645 ± 0.2659 | 0.0013 ± 0.0000 | 0.0007 ± 0.0001 | 20.9544 ± 0.8715 | 20.9996 ± 1.1273 | 22.5921 ± 0.0290 | 0.0003 ± 0.0000 | 0.0004 ± 0.0000 | 5 | 2 | 2 | 12.70 ± 5.14 | 12.70% and 12.70 ± 5.14% | Class II | insoluble
